The record followed here is patent US6806293B1, “Use of pheromone compounds having MAP kinase modulating activity” (Darley Pharmaceuticals LTD, priority 2001, dated 2004).

Common to all, as to type: cell-based, rat
Assay [1] concerns MAP kinase. Put plainly: Inhibition of EGF-stimulated MAP kinase activity in Rat1 cells (Example 2, western blot with anti-active-MAPK antibodies, densitometry). Conditions: compound 10^-4 M preincubated about 30 min; for Inhibition of MAP Kinase activity (% of Control), 15 minute activation by EGF: EGF 25 ng/ml for 15 minutes. On the procedure:
Rat1 cells grown in a series of cell culture dishes were prepared in the same manner described above in Example 1. The cells were serum-starved for 16 hours. Three groups of cell culture dishes containing Rat1 cells were each preincubated for about 30 minutes with solution containing the pheromone compound, trans-3, cis-7-tetradecadienyl-acetate at a concentration of 10^−4 M, with a solution containing the pheromone compound, trans-3, cis-8-tetradecadienyl-acetate at a concentration of 10^−4 M, or a control solution absent any pheromone compound. After preincubation, all of the Rat1 cells were stimulated with epidermal growth factor (EGF) (25 ng/ml) for about 15 minutes for one group and 30 minutes for a second group. The Rat1 cells were then washed with phosphate buffered saline (PBS) and lysed with RIPA buffer. The proteins were then separated by sodium dodecyl sulfate-polyacrylamide gel electrophoresis (SDS-PAGE) and probed with anti-active-MAPK antibodies. The inhibitory effect of the pheromone compound on MAPK activity was calculated as the percent EGF-induced activity as indicated by densitometry analysis as compared to the control receiving no pheromone compound.

Assay [2] has as its system MAP kinase. Put plainly: Screening method for pheromone compounds having MAP kinase modulating activity in Rat1 cells (Example 1). The settings on record: observed on screening in accordance with the described methods. The protocol: In a preferred screening method, as set forth in Example 1 herein, pheromone compounds with MAP kinase modulating activity are identified using Rat1 cells grown in cell culture dishes. Samples of the pheromone compound are added to respective cell culture dishes containing the Rat1 cells and incubated. A control group is established by treating a separate group of cell culture dishes containing Rat1 cells with the same solutions absent the pheromone compound. After incubation, the Rat1 cells are stimulated with epidermal growth factor to stimulate MAP kinase activation in the Rat1 cells. Upon completion of the incubation period, the Rat1 cells in each of the culture dishes are separately processed to obtain the corresponding cell extract containing proteins indicative of active kinase. The proteins are then separated using known electrophoresis techniques and prepared as a blot for the detection and measurement of active MAP kinase. The resulting blot is analyzed using densitometric techniques to measure the corresponding activity of the tested pheromone compound.
Rat1 cells were grown in 6 cm cell culture dishes in a tissue culture incubator at 37° C. in an atmosphere containing 5% carbon dioxide. The cells were serum-starved for 16 hours. […] A control group was established by adding to the remaining cell culture dishes the same solution absent the pheromone compound. After the 15 minute period, the Rat1 cells were stimulated with epidermal growth factor (EGF) (50 ng/ml) for about 15 minutes for one group and 30 minutes for a second group.
The Rat1 cells were then treated to remove the corresponding incubation medium and then the cells were rinsed twice each with 5 ml of cold phosphate buffered saline (PBS) and once with 5 ml of cold homogenizing buffer (Buffer H) containing 50 mM of β-glycerophosphate, (pH 7.3), 1.5 mM of ethylenebis(oxyethylenenitrilo)tetraacetic acid (EGTA), 1 mM of ethylenediaminetetraacetic acid (EDTA), 1 mM of dithiothreitol (DTT), 0.1 mM sodium orthovanadate, 1 mM benzamidine, 10 μg/ml of aprotinin, 10 μg/ml of leupeptin, and 2 μg/ml of pepstatin (2 μg/ml)+1% Triton-X-100.
The cells were harvested and lysed with 350 μl of cold Buffer H. Alternatively, the cells may be harvested and lysed with radioimmunoprotein assay buffer (RIPA buffer). Each extract was then centrifuged at 15,000×g for 15 minutes at 4° C. The resulting supernatants contained the protein extracts to be examined and were transferred to fresh, pre-cooled test tubes and kept on ice.
The proteins were then separated by sodium dodecyl sulfate-polyacrylamide gel electrophoresis (SDS-PAGE) and transferred, by western blotting, onto a nitrocellulose membrane.
The blot produced above was blocked with 2% bovine serum albumin (BSA) in Tris-buffered saline/Tween-20 (TBST) for 1 hour. The blot was then incubated with a monoclonal anti-active MAP kinase antibody obtained from Sigma, and diluted according to the manufacturer recommendations. The blot was incubated overnight at 4° C. Alternatively, the blot may also be incubated for about 30 minutes at 37° C., or from one to two hours at room temperature.
The treated blot was placed in a flat container and washed at least 3 times for 15 minutes each with TBST buffer at room temperature. The blot was then incubated with alkaline phosphatase-conjugated goat anti-mouse IgG obtained from Jackson Laboratories, diluted according to the manufacturer recommendations in TBST buffer for 45 minutes at room temperature. The blot was then subjected to a second washing, repeated 3 times, for 10 minutes each with TBST. An alkaline phosphatase (AP) detection technique was utilized to detect and measure the presence of active MAP kinase. Enhanced MAP kinase activity as compared to control is evidence that the compound is a MAP kinase activator. Lowered MAP kinase activity as compared to control is evidence that the compound is a MAP kinase inhibitor. […]

Assay [3] concerns MAP kinase. Put plainly: MAP kinase activation in Rat1 cells compared to EGF and TPA (Example 3, western blot, densitometry). Conditions: 15 minutes. The protocol: Rat1 cells were grown in 6 cm cell culture dishes in a tissue culture incubator at 37° C. in an atmosphere containing 5% carbon dioxide. The Rat1 cells were serum-starved for 16 hours. Three groups of the Rat1 cells were then treated for 15 minutes with either epidermal growth factor (EGF) (50 ng/ml), 12-O-tetradecanoylphorbol-13-acetate (TPA) (100nM), or with one of the pheromone compounds at one of two concentrations identified in Table 2 below. EGF and TPA are compounds which are known to activate MAP kinase and therefore serve as a basis of comparing the relative activity of the pheromone compounds. The cells were then washed with phosphate buffered saline (PBS) and lysed with radioimmunoprotein assay (RIPA) buffer. The proteins were then separated by sodium dodecyl sulfate-polyacrylamide gel electrophoresis (SDS-PAGE), transferred onto a nitrocellulose membrane and probed with anti-MAPK antibodies to produce a blot. The MAP kinase activity for the EGF-treated cells, the TPA-treated cells and the pheromone compound-treated cells, was analyzed and calculated using densitometric analysis. The results shown in Table 2 are presented as percent of EGF-stimulated active MAP kinase levels or TPA-stimulated active MAP kinase levels, respectively.

For `CCCCCC/C=C\CC/C=C/CCOC(C)=O` [Trans-3,Cis-7-Tetradecadienyl-acetate], the “Inhibition of MAP Kinase activity (% of Control), 15 minute activation by EGF” value in the assay with MAP kinase [1] turned out to be 75%. Besides, in the assay with MAP kinase [1] (EGF 25 ng/ml for 30 minutes), the “Inhibition of MAP Kinase activity (% of Control), 30 minute activation by EGF” value is reported as 85%. Besides, in the assay with MAP kinase [2], the “mitogen-activating protein kinase modulation activity (activator or inhibitor)” value was “inhibitors”.
`CCCCC/C=C\CCC/C=C/CCOC(C)=O` [Trans-3,Cis-8-Tetradecadienyl-acetate]: the “Inhibition of MAP Kinase activity (% of Control), 15 minute activation by EGF” value in the assay with MAP kinase [1] came out at 50%. Besides, the “mitogen-activating protein kinase modulation activity (activator or inhibitor)” value with MAP kinase [2] is “inhibitors”.
Take Heneicosene-11-one: the “Activity (% of EGF-activation), Conc. 1” value in the assay on MAP kinase [3] (compound 1 × 10^-4 M, relative to EGF 50 ng/ml) came out at 12%. Further, the “Activity (% of TPA-activation), Conc. 1” value in the assay with MAP kinase [3] (compound 1 × 10^-4 M, relative to TPA 100 nM) turned out to be 42%. For the same compound, the “Activity (% of EGF-activation), Conc. 2” value in the assay with MAP kinase [3] (compound 1 × 10^-5 M, relative to EGF 50 ng/ml) is listed as 12%. In addition, the “Activity (% of TPA-activation), Conc. 2” value with MAP kinase [3] (compound 1 × 10^-5 M, relative to TPA 100 nM) came to 22%. In the assay on MAP kinase [2], the “mitogen-activating protein kinase modulation activity (activator or inhibitor)” value is “activators”.
